Reference: patent US6939668B2, “Compositions and methods for treatment of lung transplants” (priority 2001, dated 2005)

Legend:
Type in all cases: cell-based
B. cepacia [1] = assay: B. cepacia binding to normal human bronchial epithelial (NHBE) cells; settings: for % Binding of control / % Inhibition: NHBE cells, mean of 4 experiments (range)
Experimental: Normal human bronchial epithelial (NHBE) cells were grown in 48 well plates. […] Unbound bacteria were removed by washing 6 times with PBS and the bound bacteria were desorbed in 1 ml of 0.5% triton X-100 and quantitated by dilution plating. Results are shown in Table 3 and represent the mean of 4 independent experiments and the values in parenthesis represent the range of experimental values.

B. cepacia [2] = assay: Effect of dextrans and xylitol on the viability of B. cepacia; settings: 60 to 80 mg/ml, 2 h, compared to BEGM alone
Experimental: Explants were obtained from lungs removed from donors for transplantation. All lungs were preserved using LPD lung preservation solution (Perfadex®, Vitrolife, Gotenberg, Sweden) (Fischer et al. (2001), J. Thorac. Cardiovasc. Surg., v. 121, pp. 594-596). Segments of donor trachea that were trimmed off the lung before implantation were used in this study. Airway explants were prepared from donor tracheal segments, which were cut into approximately 4×4 mm^2 pieces, placed in transwells with the epithelial surface facing up and maintained in BEGM at an air/liquid interface for a maximum of 24 h at 37° C., 5% CO2. […] Five micron thick sections were stained with hematoxylin and eosin and examined under a light microscope (Leica, Scarborough, ON). • Effect of dextrans and xylitol on the viability of B. cepacia: B. cepacia (10^7 cfu) was suspended in BEGM containing 0, 2, 4, 6, 7 or 8% of dextran or xylitol for 2 h and then the number of viable bacteria was determined by colony counting method. • Binding of B. cepacia to airway explants: B. cepacia suspended in PBS (5 μl containing 10^8 cfu) was added in the center of the epithelial surface of airway explants and incubated for 2 h at 37° C., 5% CO2. […] After 72 h of incubation at 37° C., bacterial colonies were counted to determine the number of bacteria (cfu) bound per explant.

[3] = test system: B. cepacia isolate BC7 (genomovar III); assay: microbe, parasite or virus in culture; design: inhibition: dose or concentration left out as unconfirmed; settings: for Percent Inhibition of binding to tracheal explants: isolate BC7, genomovar III
Experimental: (§1) B. cepacia (10^7-10^8 cfu) in 5 μl was added to the epithelial surface of tracheal explants, incubated for 2 h at 37° C. and gently washed with PBS 5 times to remove unbound bacteria.
(§2) Bound bacteria were desorbed with 0.25% triton X-100, serially diluted and plated on B. cepacia isolation agar, and incubated at 37° C. for 72 hours. Colonies were counted to calculate the number of bacteria bound per explant. When inhibitors were used, explants were incubated with inhibitors for 1 hour prior to the addition of bacteria.
(§3) Tracheal explants were preincubated for 1 hour with dextran 4K or 40K or xylitol. Bacteria (10^7 or 10^8 cfu) were then incubated for 2 hours with the tracheal explants and the number of bound bacteria per explant was determined as described above. Bacterial binding to explants preincubated with culture medium alone was considered as 0% inhibition (FIG. 1, each bar represents the mean of 14 to 17 independent experiments using trachea from 5 to 6 donors. Data were analyzed by the mixed model analysis of variance using MIXED procedure in SAS statistical software).
(§4) Explants were obtained from lungs removed from donors for transplantation. All lungs were preserved using LPD lung preservation solution (Perfadex®, Vitrolife, Gotenberg, Sweden) (Fischer et al. (2001), J. Thorac. Cardiovasc. Surg., v. 121, pp. 594-596). Segments of donor trachea that were trimmed off the lung before implantation were used in this study. Airway explants were prepared from donor tracheal segments, which were cut into approximately 4×4 mm^2 pieces, placed in transwells with the epithelial surface facing up and maintained in BEGM at an air/liquid interface for a maximum of 24 h at 37° C., 5% CO2. To evaluate the morphological status of the airway explants at this time, the explants were fixed in 10% buffered formalin and embedded in agar-paraffin. Five micron thick sections were stained with hematoxylin and eosin and examined under a light microscope (Leica, Scarborough, ON). • Effect of dextrans and xylitol on the viability of B. cepacia: B. cepacia (10^7 cfu) was suspended in BEGM containing 0, 2, 4, 6, 7 or 8% of dextran or xylitol for 2 h and then the number of viable bacteria was determined by colony counting method. • Binding of B. cepacia to airway explants: B. cepacia suspended in PBS (5 μl containing 10^8 cfu) was added in the center of the epithelial surface of airway explants and incubated for 2 h at 37° C., 5% CO2. The explants were washed gently 6 times with sterile PBS to remove unbound bacteria, and bound bacteria desorbed by incubating in 1 ml of 0.25% triton X-100 for 10 min at RT. Samples were serially diluted, and plated on B. cepacia isolation agar (Henry et al. (1997), J. Clin. Microbiol., v. 35, pp. 614-619). After 72 h of incubation at 37° C., bacterial colonies were counted to determine the number of bacteria (cfu) bound per explant.
(§5) In inhibition assays, epithelia of airway explants were pre-incubated with varying concentrations of potential inhibitors, dextran (4, 10 or 40 kDa) or xylitol for 1 h at 37° C., then bacteria were added and the assay continued as described above. Controls (no inhibitor added) in each experiment were set to a value of 100% binding, to calculate the % inhibition caused by inhibitors. Statistical analysis was carried out using Statsview and the unpaired student's t-test was used to calculate the p value. • Immunological detection of bound bacteria or mucin in airway explants: Paraffin sections of airway explants incubated with PBS or B. cepacia in presence or absence of inhibitors were deparaffinized, rehydrated and heated under pressure for 1.5 min in 10 mM citrate buffer pH 6.0 (Shi et al. (1991), J. Histochem. Cytochem., v. 39, pp. 741-748) to retrieve antigenic sites.

[4] = test system: B. cepacia C5393 (genomovar II); assay: microbe, parasite or virus in culture; design: inhibition: dose or concentration left out as unconfirmed
Experimental: as §1, §2, §3, §4, §5

[5] = test system: B. cepacia CEP040 (genomovar V); assay: microbe, parasite or virus in culture; design: inhibition: dose or concentration left out as unconfirmed
Experimental: as §1, §2, §3, §4, §5

[6] = test system: B. cepacia FC473 (genomovar IV); assay: microbe, parasite or virus in culture; design: inhibition: dose or concentration left out as unconfirmed
Experimental: as §1, §2, §3, §4, §5

[7] = test system: B. cepacia ATCC 25416 (genomovar I); assay: microbe, parasite or virus in culture; design: inhibition: dose or concentration left out as unconfirmed
Experimental: as §1, §2, §3, §4, §5

[8] = Burkholderia cepacia, Epithelial cell, read-out: % Inhibition of B. cepacia isolates binding to tracheal epithelial cells

chitobiose
inhibitory effect on binding of B. cepacia to NHBE cells (B. cepacia [1]; 0-100 μg/ml): None of these sugars inhibited the binding

N[C@H]1[C@H](O[C@H]2[C@H](O)[C@@H](N)[C@H](O[C@H]3[C@H](O)[C@@H](N)[C@H](O[C@H]4[C@H](O)[C@@H](N)C(O)O[C@@H]4CO)O[C@@H]3CO)O[C@@H]2CO)O[C@H](CO)[C@@H](O)[C@@H]1O (stereo partly shown) [chitotetraose]
inhibitory effect on binding of B. cepacia to NHBE cells (B. cepacia [1]; 0-100 μg/ml): None of these sugars inhibited the binding

OC[C@@H](O)[C@H](O)[C@@H](O)CO [Xylitol]
viability of B. cepacia (B. cepacia [2]): no change in viability
% Binding of control (B. cepacia [1]; xylitol 6%): 64 (29-105) %
% Inhibition (B. cepacia [1]; xylitol 6%): 36 (0-71) %
% Binding of control (B. cepacia [1]; xylitol 7%): 56 (54-58) %
% Inhibition (B. cepacia [1]; xylitol 7%): 44 (42-44) %
% Binding of control (B. cepacia [1]; xylitol 8%): 33 (23-43) %
% Inhibition (B. cepacia [1]; xylitol 8%): 67 (57-77) %
% Binding of control (B. cepacia [1]; xylitol 10%): 23 (18-29) %
% Inhibition (B. cepacia [1]; xylitol 10%): 77 (71-82) %
inhibition of binding of BC7 to airway explants (in words) ([3]; 60 to 80 mg/ml, p<0.005 compared to PBS treated controls, FIG. 4b): significantly inhibited the binding
inhibition [3, 8]: 58 ± 10.7%
inhibition at 80000 µg/mL ([3]; Burkholderia cepacia, read-out: inhibition of binding of B. cepacia isolate BC7 to airway explants): 67%
inhibition of B. cepacia BC7 binding to tracheal explants (in words) ([3]; Example 1, FIG. 1, 1 hour preincubation, p value <0.0001): effective in causing inhibition of bacterial binding
Percent Inhibition of binding to tracheal explants ([3]; inhibitor 7%): 76%
Percent Inhibition of binding to tracheal explants ([3]; inhibitor 8%): 81%
inhibition [4, 8]: 70 ± 6.78%
Percent Inhibition of binding to tracheal explants ([4]; isolate C5393, genomovar II, inhibitor 8%): 68%
inhibition [5, 8]: 70 ± 6.75%
Percent Inhibition of binding to tracheal explants ([5]; isolate CEP040, genomovar V, inhibitor 8%): 64%
inhibition [6, 8]: 70 ± 3.26%
Percent Inhibition of binding to tracheal explants ([6]; isolate FC473, genomovar IV, inhibitor 7%): 72%
inhibition ([7]; Burkholderia cepacia, ATCC25416, Epithelial cell, read-out: % Inhibition of B. cepacia isolates binding to tracheal epithelial cells): 82 ± 1.29%
Percent Inhibition of binding to tracheal explants ([7]; isolate ATCC 25416, genomovar I, inhibitor 8%): 84%

O=C[C@H](O)[C@@H](O)[C@@H](O)[C@H](O)CO [Galactose]
inhibitory effect on binding of B. cepacia to NHBE cells (B. cepacia [1]; 0 to 1.8%/ml): None of these sugars inhibited the binding

CC(=O)N[C@@H]1[C@@H](O)[C@H](O[C@@H]2O[C@H](CO)[C@@H](O[C@@H]3O[C@H](CO)[C@@H](O[C@@H]4O[C@H](CO)[C@@H](O[C@@H]5O[C@H](CO)[C@@H](O)[C@H](O)[C@H]5NC(C)=O)[C@H](O)[C@H]4NC(C)=O)[C@H](O)[C@H]3NC(C)=O)[C@H](O)[C@H]2NC(C)=O)[C@@H](CO)O[C@H]1O [chitopentose]
inhibitory effect on binding of B. cepacia to NHBE cells (B. cepacia [1]; 0-100 μg/ml): None of these sugars inhibited the binding

CC(=O)N[C@H]1[C@H](O[C@H]2[C@H](O)[C@@H](NC(C)=O)[C@H](O[C@H]3[C@H](O)[C@@H](NC(C)=O)C(O)O[C@@H]3CO)O[C@@H]2CO)O[C@H](CO)[C@@H](O[C@@H]2O[C@H](CO)[C@@H](O[C@@H]3O[C@H](CO)[C@@H](O[C@@H]4O[C@H](CO)[C@@H](O)[C@H](O)[C@H]4NC(C)=O)[C@H](O)[C@H]3NC(C)=O)[C@H](O)[C@H]2NC(C)=O)[C@@H]1O (stereo partly shown) [chitohexose]
inhibitory effect on binding of B. cepacia to NHBE cells (B. cepacia [1]; 0-100 μg/ml): None of these sugars inhibited the binding
